Structures can show the parent of a compound that is named as a salt. Where two headings read alike, the source gives them in different places. Marks after values point to notes of the source that are not given here. One block for each compound: values may come before it.
Test: logP determination via retention times, calibrated with unbranched alkan-2-ones
Assay type: physicochemical
[1] = HPLC on reversed-phase C18, method *: 40° C., mobile phase 0.1% aqueous formic acid and acetonitrile, linear gradient 10% to 95% acetonitrile
[2] = method *: HPLC reversed-phase C 18, temperature 40° C., mobile phase 0.1% aqueous formic acid and acetonitrile, linear gradient 10% to 95% acetonitrile
[3] = method *: HPLC reversed-phase C18, 40° C., 0.1% aqueous formic acid and acetonitrile, linear gradient 10% to 95% acetonitrile
[4] = method **: HPLC reversed-phase C 18, 43° C., 0.1% aqueous phosphoric acid and acetonitrile, linear gradient 10% to 95% acetonitrile
[5] = HPLC on reversed-phase C18 column (EEC Directive 79/831 Annex V.A8), method *: 40° C., 0.1% aqueous formic acid and acetonitrile, linear gradient 10% to 95% acetonitrile
[6] = HPLC reversed-phase C 18, EEC Directive 79/831 Annex V.A8, method *: 40° C., 0.1% aqueous formic acid and acetonitrile, linear gradient 10% to 95% acetonitrile
[7] = method *: HPLC, reversed-phase C 18, 40° C., mobile phase 0.1% aqueous formic acid and acetonitrile, linear gradient from 10% to 95% acetonitrile
[8] = HPLC on reversed-phase C18, method *: 40° C., 0.1% aqueous formic acid and acetonitrile, linear gradient 10% to 95% acetonitrile
[9] = reversed-phase C18 HPLC column, method **: HPLC reversed-phase C 18, 43° C., 0.1% aqueous phosphoric acid and acetonitrile, linear gradient 10% to 95% acetonitrile, read-out: logP
[10] = HPLC on reversed-phase C 18, EEC Directive 79/831 Annex V.A8, method *: 40° C., 0.1% aqueous formic acid and acetonitrile, linear gradient 10% to 95% acetonitrile

Compound: Brc1cnc(Nc2ccccc2)nc1NCC1CC1 [compound 189]
logP [5]: 1.93*

Compound: CCC(=O)Nc1cccc(Nc2ncc(C#N)c(NC3CC3)n2)c1 [compound 607]
logP [2]: 1.94*

Compound: Clc1cnc(Nc2cccc(-c3cccs3)c2)nc1NC1CC1 [compound 197]
logP [5]: 2.9*

Compound: CC(=O)c1cc(Nc2ncc(Br)c(NCC3CC3)n2)ccc1O [compound 463]
logP [3]: 1.92*

Compound: Clc1cnc(Nc2cccc(OCCN3CCOCC3)c2)nc1NC1CC1 [compound 1040]
logP [7]: 0.84*

Compound: COc1ccc(Nc2ncc(Cl)c(NCC3CC3)n2)cc1OC [compound 686]
logP [8]: 1.63*

Compound: CC(C)Oc1ccc(Nc2ncc(Cl)c(NCC3CC3)n2)cc1 [Example 55, 5-Chloro-N^4-(cyclopropylmethyl)-N^2-(4-isopropoxyphenyl)pyrimidine-2,4-diamine hydrochloride]
chromatographic logP (pH 2.3, read-out: logP (pH2.3)): 2.11
chromatographic logP [9]: 2.11

Compound: N#Cc1cc(Nc2ncc(Cl)c(NC3CC3)n2)c(F)cc1Cl [compound 936]
logP [8]: 3.33*

Compound: O=C1OCCN1c1cccc(Nc2ncc(Br)c(NCC3CC3)n2)c1 [compound 862]
logP [6]: 1.68*

Compound: Fc1cnc(Cl)nc1NC1CC1 [2-chloro-N-cyclopropyl-5-fluoropyrimidine-4-amine]
chromatographic logP (pH 2.3, read-out: logP (pH2.3)): 1.42

Compound: CSC(C)c1cccc(Nc2ncc(C(F)(F)F)c(NCC3CC3)n2)c1 (stereo not shown) [compound 827]
logP [6]: 3.95*

Compound: O=C(NCc1ccc(Nc2ncc(Cl)c(NC3CC3)n2)cc1)OCc1ccccc1 [Example 95]
logP [3]: 2.2*

Compound: CC(=O)Nc1ccc(Nc2ncc(Br)c(NCC3CC3)n2)cn1 [compound 481]
logP [10]: 1.47*

Compound: COC(=O)c1cc(Nc2ncc(Cl)c(NC3CC3)n2)ccc1OC [compound 1004]
logP [7]: 1.58*

Compound: CCCNS(=O)(=O)Cc1cccc(Nc2ncc(Cl)c(NC3CC3)n2)c1 [compound 335]
logP [1]: 1.81*

Compound: CC(C)CSc1cccc(Nc2ncc(Cl)c(NC3CC3)n2)c1 [compound 435]
logP [3]: 3.75*

Compound: O=C1CCCN1c1cccc(Nc2ncc(Cl)c(NCC3CC3)n2)c1 [compound 520]
logP [10]: 1.56*

Compound: COc1cccc(Nc2ncc(F)c(NC3CC3)n2)c1 [compound 573]
logP [2]: 1.51*

Compound: COC(=O)Nc1ccc(Nc2ncc(Cl)c(NCC3CC3)n2)cc1 [compound 153]
logP [8]: 1.44*

Compound: CC1(C)CC1Nc1nc(Nc2cccc(N3CCOC3=O)c2)ncc1Cl (stereo not shown) [compound 1035]
logP (method **: HPLC, reversed-phase C 18, 43° C., mobile phase 0.1% aqueous phosphoric acid and acetonitrile, linear gradient from 10% to 95% acetonitrile): 1.93**
logP [7]: 1.93*;

Compound: O=C1CCCN1c1cc(Nc2ncc(Cl)c(NC3CC3)n2)ccc1Cl [compound 368]
logP [4]: 1.9**

Compound: Fc1ccc(Nc2ncc(Cl)c(NCC3CC3)n2)cc1 [compound 550]
logP [10]: 1.97*

Compound: CC(C)(C)NC(=O)c1cccc(Nc2ncc(Br)c(NCC3CC3)n2)c1 [compound 461]
logP [3]: 2.16*

Compound: CSc1cccc(Nc2ncc(Cl)c(NCC3CC3)n2)c1 [compound 119]
logP [8]: 2.27*

Compound: FC1(F)Oc2ccc(Nc3ncc(Cl)c(NC4CC4)n3)cc2OC1(F)F [compound 289]
logP [1]: 3.76*

Compound: CC(=O)c1cccc(Nc2ncc(Cl)c(NCC3CC3)n2)c1 [compound 13]
logP [4]: 1.87**

Compound: CC(C)(C)C(=O)Nc1ccc(Nc2ncc(C(F)(F)F)c(NCC3CC3)n2)cc1 [compound 201]
logP [5]: 2.6*

Compound: CC(C)(C)C(=O)Cc1ccc(Nc2ncc(C(F)(F)F)c(NCC3CC3)n2)cc1 [compound 210]
logP [5]: 3.41*

Compound: CCCSc1cccc(Nc2ncc(Cl)c(N(C)C3CC3)n2)c1 [compound 983]
logP [7]: 4.88*

Compound: CC(=O)Nc1cc(Nc2ncc(F)c(NC3CC3)n2)ccc1C [compound 601]
logP [2]: 1.15*

Compound: CN(c1nc(Nc2ccccc2)ncc1Cl)C1CC1 [compound 734]
logP (HPLC on reversed-phase C 18, method **: 43° C., 0.1% aqueous phosphoric acid and acetonitrile, linear gradient 10% to 95% acetonitrile): 2.7**

Compound: CC(=O)Nc1cc(Nc2ncc(Cl)c(NCC3CC3)n2)ccc1O [compound 552]
logP [10]: 1.29*

Compound: Clc1cnc(Nc2ccccc2Sc2ccccc2)nc1NC1CC1 [compound 884]
logP [8]: 3.94*

Compound: CNC(=O)Oc1cccc(Nc2ncc(Cl)c(NCC3CC3)n2)c1 [compound 514]
logP [10]: 1.61*

Compound: O=S(=O)(Cc1cccc(Nc2ncc(Cl)c(NC3CC3)n2)c1)N1CCCCC1 [compound 262]
logP [5]: 2.24*

Compound: Clc1ncc(I)c(NC2CC2)n1 [2-chloro-N-cyclopropyl-5-iodopyrimidine-4-amine]
chromatographic logP (pH 2.3, read-out: logP (pH2.3)): 2.19

Compound: COc1cc(Nc2ncc(C)c(NC3CC3)n2)cc(OC)c1OC [compound 52]
logP [3]: 1.47*

Compound: Fc1ccc(Nc2ncc(Cl)c(NC3CC3)n2)cc1OC(F)F [compound 1053]
logP [7]: 2.62*

Compound: CC(C)(C)OC(=O)Nc1ccc(Nc2ncc(Cl)c(NCC3CC3)n2)cc1 [compound 522]
logP [10]: 2.18*

Compound: Fc1ccccc1Nc1ncc(Cl)c(NC2CC2)n1 [compound 275]
logP [1]: 2.09*

Compound: N#Cc1cnc(Nc2ccc(N3CCCC3=O)cc2)nc1NC1CC1 [compound 157]
logP [8]: 1.89*

Compound: O=C(Nc1cccc(Nc2ncc(Cl)c(NC3CC3)n2)c1)c1ccco1 [Example 99]
logP [8]: 1.62*

Compound: NS(=O)(=O)c1cc(Nc2ncc(Cl)c(NCC3CC3)n2)ccc1Cl [compound 693]
logP [8]: 1.83*

Compound: CCSCc1cccc(Nc2ncc(Cl)c(NC3CC3)n2)c1 [compound 986]
logP [7]: 2.55*

Compound: COC(=O)Nc1cccc(Nc2ncc(F)c(NC3CC3)n2)c1 [compound 598]
logP [2]: 1.37*

Compound: CC(C)C1COC(=O)N1c1ccc(Nc2ncc(Cl)c(NC3CC3)n2)cc1 (stereo not shown) [compound 109]
logP [8]: 2.79*

Compound: CSc1ccc(Nc2ncc(F)c(NC3CC3)n2)cc1Cl [compound 579]
logP [2]: 2.13*

Compound: FC(F)(F)c1cnc(Nc2cccc(N3CCCC3)c2)nc1NC1CC1 [compound 564]
logP [10]: 3.55*

Next, values leading:

logP [1]: 1.9*
Compound: CS(=O)(=O)c1ccc(Nc2ncc(Br)c(NC3CC3)n2)cc1 [compound 345]

logP [2]: 1.68*
Compound: CSc1ccc(Nc2ncc(F)c(NC3CC3)n2)cc1 [compound 587]

logP [3]: 1.39*
Compound: O=C1OCCN1c1ccc(Nc2ncc(Cl)c(NC3CC3)n2)cc1 [compound 83]

logP [4]: 2.6**
Compound: CCCCNS(=O)(=O)c1ccc(Nc2ncc(Cl)c(NC3CC3)n2)cc1 [Example 22]

logP [5]: 1.8*
Compound: COCc1cccc(Nc2ncc(Br)c(NC3CC3)n2)c1 [compound 269]

logP [6]: 3.14*
Compound: CC(C)(C)c1cccc(Nc2ncc(Br)c(NC3CC3)n2)c1 [compound 779]

logP [1]: 1.63*
Compound: COc1ccc(Nc2ncc(Br)c(NC3CC3)n2)cc1 [compound 344]

logP [6]: 1.59*
Compound: N#CCc1ccc(Nc2ncc(Cl)c(NC3CC3)n2)cc1 [compound 832]

logP [3]: 2.23*
Compound: COC(=O)c1ccc(Nc2ncc(Cl)c(NC3CC3)n2)cc1 [Example 37]

logP [3]: 1.64*
Compound: CC(=O)Nc1ccc(Nc2ncc(Br)c(NC3CC3)n2)cc1Cl [compound 379]

chromatographic logP (pH 2.3, read-out: logP (pH2.3)): 1.37
chromatographic logP [9]: 1.37
Compound: NS(=O)(=O)c1cccc(Nc2ncc(Cl)c(NC3CC3)n2)c1 [Example 15, 3-{[5-Chloro-4-(cyclopropylamino)pyrimidin-2-yl]amino}benzenesulphonamide]

logP [8]: 1.17*
Compound: Oc1ccc(Nc2ncc(Br)c(NC3CC3)n2)cc1 [compound 114]

logP [6]: 1.99*
Compound: COc1cc(CC#N)ccc1Nc1ncc(Br)c(NC2CC2)n1 [compound 818]

logP [10]: 0.93*
Compound: Brc1cnc(Nc2ccc(-n3ccnc3)cc2)nc1NC1CC1 [compound 501]

logP [10]: 2.15*
Compound: COc1cc(Nc2ncc(Br)c(NC3CC3)n2)cc(OC)c1 [compound 563]

logP [1]: 1.85*
Compound: CC(=O)c1cccc(Nc2ncc(Br)c(NC3CC3)n2)c1 [compound 358]

logP [3]: 1.02*
Compound: CC(=O)Nc1ccc(Nc2ncc(Cl)c(NC3CC3)n2)cc1.Cc1ccc(S(=O)(=O)O)cc1 [compound 434]

logP [8]: 2.43*
Compound: N#Cc1ccc(Nc2ncc(Br)c(NC3CC3)n2)cc1 [compound 744]

chromatographic logP (pH 2.3, read-out: logP (pH2.3)): 1.73
chromatographic logP [9]: 1.73
Compound: CC(C)NC(=O)c1ccc(Nc2ncc(Cl)c(NC3CC3)n2)cc1 [Example 43, 4-{[5-Chloro-4-(cyclopropylamino)pyrimidin-2-yl]amino}-N-isopropylbenzamide]

logP [5]: 0.61*
Compound: O=C1NC(=O)C(c2ccc(Nc3ncc(Cl)c(NC4CC4)n3)cc2)N1 (stereo not shown) [compound 176]

logP [1]: 2.11*
Compound: CC(C)OC(=O)Nc1cccc(Nc2ncc(Br)c(NC3CC3)n2)c1 [compound 331]

logP [8]: 1.58*
Compound: O=C1C=CC(=O)N1c1ccc(Nc2ncc(Cl)c(NC3CC3)n2)cc1 [compound 156]

logP [10]: 2.63*
Compound: CC1CC(C)CN(c2cccc(Nc3ncc(Br)c(NC4CC4)n3)c2)C1 (stereo not shown) [compound 529]

logP [3]: 1.83*
Compound: CCOC(=O)Nc1cccc(Nc2ncc(Br)c(NC3CC3)n2)c1 [compound 385]

logP [8]: 2.26*
Compound: N#Cc1cccc(Nc2ncc(Br)c(NC3CC3)n2)c1 [compound 741]

logP (HPLC on reversed-phase C18, method **: 43° C., mobile phase 0.1% aqueous phosphoric acid and acetonitrile, linear gradient 10% to 95% acetonitrile): 1.99**
Compound: CC(C)(C)NS(=O)(=O)Cc1ccc(Nc2ncc(Cl)c(NC3CC3)n2)cc1 [compound 326]

logP [8]: 1.55*
Compound: O=C1CCCCN1c1cccc(Nc2ncc(Br)c(NC3CC3)n2)c1 [compound 733]
